In brackets after ≈: the same amount, converted by molar mass. Activity calls are given as the source filed them. No cut-off for these calls is given here.
Columns and labels:
Pseudomonas putida [1] = test: Inactivation of Pseudomonas putida PAW340 biofilms assessed as decrease in heat production at 0.5 mM within 1 hr by Chip calorimetry; format: functional; parameters: scale not given: the % may be the effect or the level left
Pseudomonas putida [2] = test: Inactivation of Pseudomonas putida PAW340 biofilms assessed as decrease in heat production at 0.5 mM by Chip calorimetry; format: functional, organism-based
Pseudomonas putida [3] = test: Inactivation of Pseudomonas putida PAW340 biofilms assessed as decrease in ATP content at 0.5 mM by Chip calorimetry; format: functional, organism-based
Neisseria gonorrhoeae = test: Antibacterial activity against Neisseria gonorrhoeae; format: functional
Pseudomonas putida [4] = test: Inactivation of Pseudomonas putida PAW340 biofilms assessed as decrease in heat production at 3 to 30 ug/ml by Chip calorimetry; format: functional, organism-based; conditions: TDE = time-dependent effect
Staphylococcus aureus = test: Antibacterial activity against Staphylococcus aureus; format: functional
Pseudomonas aeruginosa = test: Antibacterial activity against Pseudomonas aeruginosa; format: functional
Klebsiella pneumoniae = test: Antibacterial activity against Klebsiella pneumoniae; format: functional
Pseudomonas putida [5] = test: Effect on Pseudomonas putida PAW340 biofilms assessed as heat production at 250 ug/ml by Chip calorimetry; format: functional
Escherichia coli = test: Antibacterial activity against Escherichia coli; format: functional
Pseudomonas putida [6] = test: Effect on Pseudomonas putida PAW340 biofilms assessed as heat production at 70 ug/ml by Chip calorimetry; format: functional
Pseudomonas putida [7] = test: Effect on Pseudomonas putida PAW340 biofilms assessed as heat production at 3 ug/ml by Chip calorimetry; format: functional
Pseudomonas putida [8] = test: Inactivation of Pseudomonas putida PAW340 biofilms assessed as decrease in heat production by Chip calorimetry; format: functional, organism-based
Pseudomonas putida [9] = test: Antibacterial activity against Pseudomonas putida PAW340 assessed as decrease in bacterial count at 20 to 150 ug/ml; format: functional, organism-based

SMILES: O=[N+]([O-])c1ccc(O)c([N+](=O)[O-])c1 [2,4-DINITROPHENOL]
- Activity (Pseudomonas putida [1]): 90%
- Activity (Pseudomonas putida [2]): Active
- Activity (Pseudomonas putida [3]): Active

SMILES: NC[C@H]1O[C@H](O[C@H]2[C@H](O)[C@@H](O[C@H]3O[C@H](CO)[C@@H](O)[C@H](N)[C@H]3O)[C@H](N)C[C@@H]2N)[C@H](O)[C@@H](O)[C@@H]1O [KANAMYCIN]
- MIC (Neisseria gonorrhoeae): 2 µg/mL (≈ 4.13 µM)
- Activity (Pseudomonas putida [4]): tde

SMILES: CN(C)[C@@H]1C(O)=C(C(N)=O)C(=O)[C@@]2(O)C(O)=C3C(=O)c4c(O)cccc4[C@@](C)(O)[C@H]3C[C@@H]12 [TETRACYCLINE]
- MIC (Staphylococcus aureus): 0.15 µg/mL (≈ 0.338 µM)
- MIC (Pseudomonas aeruginosa): 6.25 µg/mL (≈ 14.1 µM)
- MIC (Klebsiella pneumoniae): 2.5 µg/mL (≈ 5.63 µM)
- Activity (Pseudomonas putida [5]): 100%
- MIC (Escherichia coli): 0.07 µg/mL (≈ 0.158 µM)
- Activity (Pseudomonas putida [6]): 118%
- Activity (Pseudomonas putida [7]): 100%

SMILES: O=C(O)c1cn(C2CC2)c2cc(N3CCNCC3)c(F)cc2c1=O
- Activity (Pseudomonas putida [8]): Dose-dependent effect
- Activity (Pseudomonas putida [9]): Active
